Patent publication US9802897B2, “Amidopyridinol derivative or pharmaceutically acceptable salt thereof and pharmaceutical composition comprising same as active component” (Research Cooperation Foundation of Yeungnam University, priority 2013, dated 2017)
“And” between values parts separate entries of the source, which are not always exact repeats. Equal entries are not always repeated.

Legend:
cathepsin S = experiment: RT-PCR of cathepsin S gene expression in MDA-MB-231 cells; type: cell-based; conditions: Homo sapiens, MDA-MB-231, 24 h, screening, 1 μM of each compound; MDA-MB-231, RT-PCR; read-out: Inhibition rate of expression of cathepsin S (%)
Protocol: Each compound of the present invention was treated with breast cancer cells (1×10^5 cell/cm^2), e.g., MDA-MB-231, and then, cultured at a temperature of 37° C. for 24 hours in a cell incubator. Afterwards, a trizole reagent was used to extract the entire mRNA therefrom. 24 hours later, the culture medium was removed therefrom, 1 mL of the triazole reagent was added to each well, and then, the cell elusion was transferred to a 1.5 mL tube. After 200 μl of chloroform was added to each sample, the samples were subjected to centrifugation at a temperature of 4° C., at 12,000 g, for 15 minutes. 500 μl of the supernatant obtained therefrom was transferred to a new tube. After 500 μl of isopropylalcohol was added to each sample, the samples were subjected to centrifugation at a temperature of 4° C., at 12,000 g, for 15 minutes. The supernatant obtained therefrom was removed from each sample, and then, the samples were washed with 75% ethanol to clean mRNA while the precipitants were dried. Then, mRNA extracted therefrom was dissolved in RNase-free water, followed by being heated at a temperature of 55° C. for 10 minutes.
After the RNA quantification, the GoScript™ reverse transcription system (Promega Corporation, Madison, Wis., USA) was used to synthesize cDNA. Here, PCR was performed by using TaKaRa Taq™ (Takara bio Inc., Shiga, Japan), wherein a primer set of cathepsin S consists of a forward primer having SEQ ID NO: 1 (forward sequence: 5′-GCAGTGGCACAGTTGCATAA-3′) and a reverse primer having SEQ ID NO: 2 (reverse sequence: 5′-AGCACCACAAGAACCCATGT-3′). After the PCR product was subjected to agarose gel electrophoresis, the PCR product was stained with ethidium bromide (0.5 μg/ml), thereby obtaining images thereof by using the gel imaging system (UVP, Cambridge, UK). Here, the PCR product was quantified based on glyceraldehyde 3-phosphate dehydrogenase (GAPDH). A GAPDH primer used herein consists of a forward primer having SEQ ID NO: 3 (forward sequence: 5′-GGTGAAGGTCGGAGTCAACG-3′) and a reverse primer having SEQ ID NO: 4 (reverse sequence: 5′-CAAAGTTGTCATGGATGACC-3′).
Furthermore, to screen other amidopyridinol derivatives that inhibit metastasis of breast cancer cells, inhibitory effects on expression of cathepsin S genes were reviewed by treating 1 μM of each compound, in the same manner as in Experimental Example 9.

HUVEC cells = experiment: Scavenging of VEGF-induced ROS in HUVEC cells (DCF-DA fluorescence); type: cell-based; conditions: pre-treated 3 hours, induced by VEGF 15 minutes, vs VEGF-induced cells
Protocol: To measure scavenging effects of ROS in HUVEC cells that were induced by VEGF, 2′,7′-dichlorofluorescein diacetate (DCF-DA) was used. […] After […] at a concentration of 1×10^5, each of which well was coated with 0.2% gelatin, DCF-DA was cultured for 24 hours. Meanwhile, Compounds 8a and 8b were pre-treated for 3 hours, induced by VEGF for 15 minutes, and then, washed with PBS (pH 7.4) three times. Then, 10 μM of DCF-DA was placed in a EBM-2 medium to be treated for 30 minutes in a dark room. Then, DCF-DA was washed again with PBS three times, and then, subjected to measure intensity of fluorescence in the cells by using a fluorescence microscope.

HT-29 cells / U937 cells = experiment: TNF-α-induced adhesion of HT-29 intestinal epithelial cells and U937 mononuclear cells; type: cell-based, human; conditions: Homo sapiens; 1 μM, pre-treated 1 hour; TNF-α 10 ng/ml; read-out: Inhibitory rates (%)
Outline: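 HT-29 cells were pretreated with compound for 1 h in serum-free medium, then stimulated with TNF-α 10 ng/ml for 3 h at 37 °C. BCECF-AM-labelled U937 cells were co-incubated for 1 h at 37 °C. Non-adherent cells were washed off, and lysates in 0.1% Triton X-100/0.1 M Tris were read by fluorescence.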

[1] = test system: VEGF-induced angiogenesis in chicken chorioallantoic membrane (CAM); experiment: CAM analysis of VEGF-induced angiogenesis; type: in vivo; conditions: for inhibition in vivo at 0.01 nmol/CAM: Gallus gallus, 72 h, VEGF (20 ng/CAM) + Compound (0.01 nmol/CAM), number of blood vessels after 3 days, read-out: Inhibitory rates (%); for ID50 against inhibition of angiogenesis: VEGF-induced CAM angiogenesis
Outline: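 Fertilized chicken eggs incubated at 37° C, 55% humidity; on day 10 a window was opened and a cortisone acetate (3 mg/mL)-treated filter disk carrying VEGF at 20 ng/CAM was placed on vessels. Compounds in DMSO/PBS were applied at several concentrations for 3 days; blood vessel number under the disk was counted by stereomicroscopy.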

| Compound | inhibition at 1 µM (cathepsin S) | intensity of fluorescence in the cells (ROS) (HUVEC cells) | inhibition at 1 µM (HT-29 cells / U937 cells) | inhibition in vivo at 0.01 nmol/CAM [1] | ID50 against inhibition of angiogenesis [1] |
| --- | --- | --- | --- | --- | --- |
| CC(=O)Nc1nc(C)c(O)c(C)c1C [Compound 8a, N-(5-hydroxy-3,4,6-trimethylpyridine-2-yl)acetamide] | ≥ 50% | significant decrease in the intensity of fluorescence | 55.4% | 84.8 ± 10% | 1.7 pg/CAM and 8.7 fmol/CAM |
| CCCCCCCCCCCC(=O)Nc1nc(C)c(O)c(C)c1C [Compound 8b, N-(5-hydroxy-3,4,6-trimethylpyridine-2-yl)dodecanamide] | ≥ 50% | significant decrease in the intensity of fluorescence | 55.8% | 59.3 ± 5.4% | 5.0 pg/CAM and 14.9 fmol/CAM |
